Assay results from patent US20120213766A1, “Anticancer Compounds from Vernonia Guineensis” (priority 2011, published 2012).

How the values were obtained:
[1] = test system: Breast cancer cell line MCF-7; assay: Cell proliferation assay (WST-1, 72 h); type: cell-based; conditions: Homo sapiens, MCF7, Breast MCF-7, average of two runs
Protocol: (§1) Breast cancer cells lines MDA-MD-231 and MCF-7, colon cancer cell line HCT-116, Leukaemia cell line HL-60, lung cancer cell line A549, melanoma cancer cell line A375, ovarian cancer cell line OVCAR3 and prostate cancer cell line PC-3 were treated with Compound A (Kuminol) and Compound B (Vernoginin) to determine the effects of the molecules on the proliferation of each cell line.
(§2) Established protocol was used to assay the anti-proliferation effects of these compounds against selected cancer cell lines. Each cell line is grown in RPMI/10% FBS/1% glutamine. On the day the experiment is initiated, cells are trypsinized and plated into 96 well plates in 50 ul of media. Compound is added approximately 18 hours after plating. Cells are plated at a density so that 72 hours post drug addition, the cells are in log phase (500-2000 cells/well). The compounds are solubilized in DMSO at a concentration of 100 mM, aliquoted and stored at −20^C. On the day of drug addition, the compounds are removed from the freezer and serially diluted in DMSO to concentrations as low as 100 nM. The compounds are then diluted 1:1000 into growth media (this is 2× the final concentration) including a DMSO alone control. 50 ul of media/compound is added to each well. The cells are allowed to proliferate for 72 hours. The experiment is terminated using WST-1 (Roche) and absorbance is read at 450 nm/690 nm IC50s are calculated in GraphPad Prism converting all values to percentage of control cell growth. Each cell line is run in duplicate and the average of the two runs is the calculated IC50 of each compound.

[2] = test system: Breast cancer cell line MDA-MB-231; assay: Cell proliferation assay (WST-1, 72 h); type: cell-based; conditions: Homo sapiens, Breast MDA-MB-231, average of two runs
Protocol: as §1, §2

[3] = test system: Leukaemia cell line HL-60; assay: Cell proliferation assay (WST-1, 72 h); type: cell-based; conditions: Homo sapiens, Leukaemia HL-60, average of two runs
Protocol: as §1, §2

[4] = test system: colon cancer cell line HCT-116; assay: Cell proliferation assay (WST-1, 72 h); type: cell-based; conditions: Homo sapiens, Colon HCT-116, average of two runs
Protocol: as §1, §2

[5] = test system: lung cancer cell line A549; assay: Cell proliferation assay (WST-1, 72 h); type: cell-based; conditions: Homo sapiens, average of two runs
Protocol: as §1, §2

[6] = test system: melanoma cancer cell line A375; assay: Cell proliferation assay (WST-1, 72 h); type: cell-based; conditions: A-375, Human melanoma A375, average of two runs
Protocol: as §1, §2

[7] = test system: ovarian cancer cell line OVCAR3; assay: Cell proliferation assay (WST-1, 72 h); type: cell-based; conditions: Homo sapiens, OVCAR-3, average of two runs
Protocol: as §1, §2

[8] = test system: prostate cancer cell line PC-3; assay: Cell proliferation assay (WST-1, 72 h); type: cell-based; conditions: Prostate PC-3, average of two runs
Protocol: as §1, §2

[9] = test system: prostate cancer, human melanoma, breast cancer and others; assay: Anticancer screen, in vitro cell proliferation assay (MTT); type: cell-based
Text: The extracts obtained as described above were fractionated by absorbing onto celite and then extracting with increasing polarities of ethyl acetate in hexane. Each fraction obtained was evaporated in-vacuo to remove the solvent and monitored by thin layer chromatography (TLC). […] The dried residue of each fraction was used in the anticancer assay to determine effect on cell proliferation. The active fraction was subjected to dry column chromatography (DCC) using normal phase silica gel activated for visualization with UV 254. This procedure led to the isolation of compounds of Formula I in pure form. The Compound A (Kuminol) and the other fractions obtained were further subjected to anticancer activity screening.
Further purification of second active fraction by use of Waters Sep Pak flash chromatography yielded compounds of the Formula II. Compound B (Vernoginin) inhibited prostate cancer, human melanoma, breast cancer and others in the in vitro cell proliferation assay.
The anticancer screen is based on the highly sensitive 3-(4,5-dimethylthiazol-2-yl)-2, S-diphenyl tetrazolium bromide (MTT) assay. […]
The anticancer activity of the extract obtained as described above was confirmed using the highly proliferative B16 cell line. […] Each of the fractions obtained was evaporated in-vacuo to remove the solvent and monitored by thin layer chromatography (TLC). […]

[10] = test system: human leukaemia cell line HL-60; assay: Apoptosis determination (Annexin V and propidium iodide, flow cytometry); type: cell-based; conditions: 1x, 10x and 50x IC50, 0-24 h
Protocol: The apoptotic effects of Kuminol (Compound A) and Vernoginin (Compound B) against the human leukaemia cell line HL-60 was determined. Annexin V and Propidium Iodide assay were carried out to determine whether Kuminol and Vernoginin have effect on cell cycle and induction of apoptosis in cancer cells. Cell death can result from either necrosis or apoptosis (programmed cell death).
The human leukaemia cell line HL60 were plated in RPMI1640 at 4×10^6 (2×10^5 cells/ml) and treated with 1×IC50, 10×IC50 and 50×IC50 Kuminol and Vernoginin. For cell cycle, 2 ml of the treated cells were stained with propidium iodide as per the manufactures instruction, aliquots (2 ml) of cells were removed and fixed at 3, 6, 24, 48 and 72 hours. For apoptosis, 2 ml aliquots of cells were removed at 0, 3, 6 and 24 hours and were stained with Annexin V FITC as per the manufacturer's instructions. The presence of apoptosis and cell cycle changes were detected using a Cytomics 500 Beckman Coulter Flow Cytometer (Coulter, Inc. Hialeah, Fla., USA

B16 tumors = assay: In vivo antitumor activity; conditions: B16 tumors in C57 mice; FIG. 5

Structure (SMILES)	IC50 [1]	IC50 [2]	IC50 [3]	IC50 [4]	IC50 [5]	IC50 [6]	IC50 [7]	IC50 [8]	growth inhibition in anticancer assay (in words) [9]	induction of apoptosis (in words) [10]	suppression of tumors (in words) (B16 tumors)
C=C1COC(O)/C(C(O/C=C(\C)C=O)C(=C)C(=O)O)=C\CCCC(O)C1=O (centres unmarked) [Kuminol, 2-[(2,8-Dihydroxy-10-methylene-9-oxo-oxacycloundec-3-en-3-yl)-(2-methyl-3-oxo-propenyloxy)-methyl]-acrylic acid]	670 ± 320 nM	1010 ± 200 nM	1550 ± 470 nM	450 ± 7 nM	2040 ± 1040 nM	350 ± 40 nM	740 ± 310 nM	1000 ± 260 nM	exhibited growth inhibition	induce apoptosis	suppression effects
C=CC(C)(CC(O)C(O)C(=C)C=O)C(O)C(C(=C)C(C)=O)C(=C)C(=O)CCO (centres unmarked) [Vernoginin, 3,4,7,12,-Tetrahydroxy-6-methyl-2,9-dimethylene-8-(1-methylene-2-oxo-propyl)-10-oxo-6-vinyl-dodecanal]	1560 ± 960 nM	367 ± 30 nM	1120 ± 750 nM	140 ± 150 nM	1130 ± 380 nM	130 ± 150 nM	480 ± 8 nM	–	inhibited	induce apoptosis	–
